Reference: paper PMC3684613 (PLoS ONE, 2013)
Where two headings read alike, the source gives them in different places.

Key:
P. falciparum 3D7 [1] = test system: P. falciparum 3D7; set-up: method as in ChEMBL-NTD; conditions: ref ChEMBL-NTD, cited from earlier work
P. falciparum 3D7 [2] = assay: DAPI stain fluorescent high content imaging assay, P. falciparum 3D7 (confirmatory screen, Avery); conditions: Plasmodium falciparum; for EC50: 3D7, read-out: EC50_nM; for inhibition of growth at 5 µM: 3D7, read-out: percent_inh @ 5 uM
[3] = original screening data, source (GSK, GNF, StJude), several values separated by ';' in order of sources
[4] = values follow the order of the source (GNF; GSK; StJude)

## CCOC(=O)c1cn(CC)c2cc(N3CCCCC3)c(F)cc2c1=O [MMV665827]
P. falciparum 3D7 [1]; source GNF (GNF-Pf id)
  EC50: 0.166 µM
P. falciparum 3D7 [1]; source GSK (TCMDC id)
  EC50: 0.125 µM
P. falciparum 3D7 [2]
  EC50: 0.119 µM
  inhibition of growth at 5 µM: 100%

## CC(C)OCc1cc(CN2CCN(c3cccc(Cl)c3)CC2)c(O)c2ncccc12 [MMV000788]
P. falciparum 3D7 [1]; source StJude
  EC50: 0.941 µM
P. falciparum 3D7 [2]
  EC50: 0.697 µM
  inhibition of growth at 5 µM: 98%

## O=C(Nc1ccc(C23CC4CC(CC(c5ccccc5)(C4)C2)C3)cc1)c1cccs1 [MMV007574]
P. falciparum 3D7 [1]; source GNF (GNF-Pf ids)
  EC50: 0.645 µM
P. falciparum 3D7 [2]
  EC50: 0.826 µM
  inhibition of growth at 5 µM: 96%

## CCOC(=O)c1cnc2c(CC)cccc2c1O [MMV498479]
P. falciparum 3D7 [1]; source GNF (GNF-Pf ids)
  EC50: 1.66 µM
P. falciparum 3D7 [2]
  inhibition of growth at 5 µM: 87%

## COc1cccc(C(=O)NC(c2ccc(C)cc2)c2cc(Cl)c3cccnc3c2O)c1 (centres unmarked) [MMV665969]
P. falciparum 3D7 [1]; source StJude (SJ ids)
  EC50: 15 µM
P. falciparum 3D7 [2]
  EC50: 0.393 µM
  inhibition of growth at 5 µM: 97%

## O=C(Nc1cccc(-c2nc3ccccc3[nH]2)c1)c1cccc(NC(=O)c2ccco2)c1 [MMV665883]
P. falciparum 3D7 [1]; [3]
  EC50: 0.36 µM
P. falciparum 3D7 [2]
  EC50: 0.745 µM
  inhibition of growth at 5 µM: 95%

## COc1cccc(O)c1CN1CCC2(CCCN(Cc3ccc(F)cc3)C2)C1 (centres unmarked) [MMV666061]
P. falciparum 3D7 [1]; source GSK
  EC50: 0.865 µM
P. falciparum 3D7 [2]
  EC50: 0.53 µM
  inhibition of growth at 5 µM: 95%

## CC1CN(C(=O)c2sc3ccccc3c2Cl)CC(C)O1 (centres unmarked) [MMV020492]
P. falciparum 3D7 [1]; source GSK (TCMDC id)
  EC50: 0.0879 µM
P. falciparum 3D7 [2]
  EC50: 0.0255 µM
  inhibition of growth at 5 µM: 95%

## CN1C=C(c2ccc3ccccc3n2)C(c2c[nH]c3ccccc23)c2ccccc21 (centres unmarked) [MMV008160]
P. falciparum 3D7 [1]; [4]
  EC50: 1.14 µM
P. falciparum 3D7 [2]
  EC50: 0.552 µM
  inhibition of growth at 5 µM: 95%

## CCN(CC)c1ccc(NC(=O)c2cccs2)cc1 [MMV009060]
P. falciparum 3D7 [1]; source GNF
  EC50: 0.414 µM
P. falciparum 3D7 [2]
  inhibition of growth at 5 µM: 88%

## CCN(CC)CCCNc1nc(-c2ccc(Cl)cc2)nc2ccccc12 [MMV665961]
P. falciparum 3D7 [1]; source StJude
  EC50: 15 µM
P. falciparum 3D7 [2]
  inhibition of growth at 5 µM: 92%

## CC1CCN(Cc2c(O)ccc3cc(-c4nc5ccccc5s4)c(=O)oc23)CC1 [MMV009127]
P. falciparum 3D7 [1]; source GNF (GNF-Pf ids)
  EC50: 12.5 µM
P. falciparum 3D7 [2]
  EC50: 1.13 µM
  inhibition of growth at 5 µM: 91%

## CC(C)=CCN1CCC(C(=O)Nc2ccc(-c3nc4ccccc4[nH]3)cc2)CC1 [MMV665946]
P. falciparum 3D7 [1]; source GSK
  EC50: 0.908 µM
P. falciparum 3D7 [1]; source StJude
  EC50: 1.34 µM
P. falciparum 3D7 [2]
  EC50: 1.16 µM
  inhibition of growth at 5 µM: 96%

## COc1ccc(NC(=O)C2c3ccccc3C(=O)N(CC(C)C)C2c2cccs2)cc1Cl (centres unmarked) [MMV000642]
P. falciparum 3D7 [1]; source GNF (GNF-Pf id)
  EC50: 0.0914 µM
P. falciparum 3D7 [1]; source StJude (SJ id)
  EC50: 0.119 µM
P. falciparum 3D7 [2]
  EC50: 0.0202 µM
  inhibition of growth at 5 µM: 100%

## CC(C)(C)c1ccc(C(=O)Nc2c3c(nn2-c2cccc(Cl)c2)CSC3)cc1 [MMV666123]
P. falciparum 3D7 [1]; source StJude (SJ ids)
  EC50: 15 µM
P. falciparum 3D7 [2]
  inhibition of growth at 5 µM: 93%

## FC(F)(F)c1cccc(CNC2CCN(CCc3ccccc3)CC2)c1 [MMV665979]
P. falciparum 3D7 [1]; source GNF
  EC50: 0.174 µM
P. falciparum 3D7 [2]
  EC50: 0.685 µM
  inhibition of growth at 5 µM: 96%

## CCn1c(CN2CCN(Cc3ccccc3)CC2)nc2cc(NC(=O)c3cccs3)ccc21 [MMV020439]
P. falciparum 3D7 [1]; source GSK (TCMDC id)
  EC50: 0.402 µM
P. falciparum 3D7 [2]
  EC50: 0.512 µM
  inhibition of growth at 5 µM: 97%

## O=C(NC1CCN(Cc2ccccc2)CC1)c1cc(-c2cccnc2)nc2ccc(Cl)cc12 [MMV020490]
P. falciparum 3D7 [1]; [3]
  EC50: 0.759 µM
P. falciparum 3D7 [2]
  EC50: 1.01 µM
  inhibition of growth at 5 µM: 91%

## Cc1ccc(C(=O)c2oc3ccc4c(C)cc(=O)oc4c3c2C)cc1 [MMV086103]
P. falciparum 3D7 [1]; [4]
  EC50: 1.03 µM
P. falciparum 3D7 [2]
  EC50: 0.906 µM
  inhibition of growth at 5 µM: 96%

## COc1cccc(C(=O)Nc2ccc(-c3nc4ccccc4[nH]3)cc2)c1 [MMV019762]
P. falciparum 3D7 [1]; [3]
  EC50: 0.802 µM
P. falciparum 3D7 [2]
  inhibition of growth at 5 µM: 83%

## c1ccc2cc3c(Nc4ccc(N5CCOCC5)cc4)ccnc3cc2c1 [MMV006861]
P. falciparum 3D7 [1]; source GNF (GNF-Pf id)
  EC50: 0.672 µM
P. falciparum 3D7 [2]
  EC50: 0.251 µM
  inhibition of growth at 5 µM: 97%

## COc1cccc(NC(=O)Cn2c(C)c(C#N)c3ccccc32)c1 [MMV665826]
P. falciparum 3D7 [1]; source GNF
  EC50: 0.0796 µM
P. falciparum 3D7 [1]; source GSK
  EC50: 0.878 µM
P. falciparum 3D7 [2]
  EC50: 1.09 µM
  inhibition of growth at 5 µM: 95%

## OC(CNCc1ccccc1)Cn1c2ccccc2c2ccccc21 (centres unmarked) [MMV000839]
P. falciparum 3D7 [1]; source StJude (SJ ids)
  EC50: 3.76 µM
P. falciparum 3D7 [2]
  EC50: 1.08 µM
  inhibition of growth at 5 µM: 95%

## Cc1sc2ncnc(Sc3nc4ccccc4[nH]3)c2c1C [MMV019266]
P. falciparum 3D7 [1]; [3]
  EC50: 0.255 µM
P. falciparum 3D7 [2]
  EC50: 0.615 µM
  inhibition of growth at 5 µM: 100%

## O=C(CCc1ccco1)NC1CCN(CC2(c3ccc(Cl)cc3)CCC2)CC1 [MMV666108]
P. falciparum 3D7 [1]; source GSK
  EC50: 1.45 µM
P. falciparum 3D7 [2]
  EC50: 1.14 µM
  inhibition of growth at 5 µM: 96%

## Cc1ccc(C2CC(C(F)(F)F)n3nc(C(=O)N4CCN(C(c5ccccc5)c5ccccc5)CC4)cc3N2)cc1 (centres unmarked) [MMV000699]
P. falciparum 3D7 [1]; source StJude (SJ ids)
  EC50: 0.668 µM
P. falciparum 3D7 [2]
  EC50: 0.454 µM
  inhibition of growth at 5 µM: 98%

## CCOC(=O)C1=CN(C)C=C(C(=O)OCC)C1c1cc(Br)c(OCC)c(OC)c1 [MMV006656]
P. falciparum 3D7 [1]; [4]
  EC50: 0.913 µM
P. falciparum 3D7 [2]
  EC50: 0.518 µM
  inhibition of growth at 5 µM: 97%

## Oc1ccccc1CN1CCC2(CCCN(Cc3ccccc3F)C2)C1 (centres unmarked) [MMV666116]
P. falciparum 3D7 [1]; [3]
  EC50: 0.679 µM
P. falciparum 3D7 [2]
  EC50: 0.548 µM
  inhibition of growth at 5 µM: 98%

## COc1cccc(Nc2nc(NCCO)c3ccccc3n2)c1 [MMV011944]
P. falciparum 3D7 [1]; source GNF
  EC50: 0.115 µM
P. falciparum 3D7 [1]; source GSK
  EC50: 0.151 µM
P. falciparum 3D7 [2]
  EC50: 0.854 µM
